According to patent US20220296595A1, “CDK INHIBITORS” (QILU REGOR THERAPEUTICS INC., priority 2019, published 2022):
Where two headings read alike, the source gives them in different places.

Legend:
T47D breast cancer cells = experiment: Anti-proliferation assay in T47D cell (Cyquant, day 6); format: cell-based, human; conditions: anti-proliferation, T47D cells, read-out: T47D IC50
Description: T47D is a human breast cancer cell line commonly used in biomedical research involving the hormonal expression of cancer cells. T47D cells are distinct from other human breast cancer cells in that their progesterone receptors (PR) are not regulated by estradiol, a hormone that is abundant within the cells themselves. T47D cells have been employed in studies of the effects of progesterone on breast cancer and the corresponding transcriptional regulation caused by introduced drugs. The cells have been noted to be extremely resistant to estrogens and antiestrogens.
T47D breast cancer cells from American Type Culture Collection (ATCC, HTB-133) were plated at 3000 cells/well in 96-well plates, and were incubated in RPMI 1640 medium (Gibco, 31800105) with 10% Fetal Bovine Serum (FBS, Biowest, FB-1058) at 37° C., 5% CO2. After overnight incubation, baseline values were measured of the samples from one plate using Cyquant reagent (Invitrogen, C35011) following manufacturer's recommendations. Cells were incubated with the detection reagent for 1 hour at 37° C., and then the fluorescence was measured with excitation at 485 nm and emission at 535 nm using Spectra Max M5 (Molecular Devices, HD-4HYSG3196). Other plates were dosed with compounds at a ten-point dose concentration from 10 μM to 0.51 nM in a 3-fold dilution scheme. On day 6 after compound addition, Cyquant reagent was added and the fluorescence was measured using Spectra Max M5. The IC50 values of the test compound's anti-proliferation activity were determined from the baseline subtracted viability readout curve using Xlfit5/GraphPad Prism 5 software.

CDK2/CyclinE1 = biological target: T1, CDK2/CyclinE1 (Homo sapiens, UniProt P24941); experiment: Assay for inhibition of CDK2/CyclinE1 (Caliper microfluidic kinase assay); format: biochemical; conditions: read-out: CDK2 IC50
T1 construct: purchased SignalChem C29-18G
Protocol: The CDK2 enzyme assay for IC50 determination was performed as follows. Microfluidic kinase detection technology (Caliper) was used to monitor the phosphorylation of peptide substrate by CDK2/CyclinE1. The total reaction volume was 15 μL containing buffer A (100 mM HEPES (pH 7.5), 0.1% BSA, 0.01% Triton X-100, 1 mM DTT, 10 mM MgCl2, 10 μM Sodium Orthovanadate, 10 μM Beta-Glycerophosphate), 100 μM ATP, 5 nM CDK2/CyclinE1 (SignalChem, C29-18G), 5 μM FL-18 (5-FAM-QSPKKG-NH2), and the test compound at appropriate dilutions in DMSO. All components were added to the 384-well plate (Corning, 4514), and incubate at Room Temperature for 3 hours. The reaction was terminated by addition of 15 μL Stop Buffer (180 mM HEPES (pH 7.5), 20 mM EDTA, Coating-3 reagent (PerkinElmer, 760050)). The plate was loaded on Caliper EZ Reader (EZ Reader II, PerkinElmer, HD-4HYSG2772), and the reaction mixtures including substrate and product were sipped into the microfluidic chip for separation and detection. The IC50 values of the test compound were determined by fitting the inhibition curves by 4 parameter sigmoidal dose-response model using the Xlfit5/GraphPad Prism 5 software.

CDK4/CyclinD1 = biological target: T2, CDK4/CyclinD1 (Homo sapiens, UniProt P11802); experiment: Assay for inhibition of CDK4/CyclinD1 (Caliper microfluidic kinase assay); format: biochemical
T2 construct: purchased Thermofisher PR8064A
Protocol: The CDK4 enzyme assay for IC50 determination was performed as follows. Microfluidic kinase detection technology (Caliper) was used to monitor the phosphorylation of peptide substrate by CDK4/CyclinD1. The total reaction volume was 15 μL containing buffer A (100 mM HEPES (pH 7.5), 0.1% BSA, 0.01% Triton X-100, 1 mM DTT, 10 mM MgCl2, 10 μM Sodium Orthovanadate, 10 μM Beta-Glycerophosphate), 200 μM ATP, 1 nM CDK4/CyclinD1 (Thermofisher, PR8064A), 1 μM FL-34 (5-FAM-[…]), and the test compound at appropriate dilutions in DMSO. All components were added to the 384-well plate (Corning, 4514), and incubated at Room Temperature for 3 hours. The reaction was terminated by addition of 15 μL Stop Buffer (180 mM HEPES (pH 7.5), 20 mM EDTA, Coating-3 reagent (PerkinElmer, 760050)). The plate was then loaded on Caliper EZ Reader (EZ Reader II, PerkinElmer, HD-4HYSG2772), and the reaction mixtures including substrate and product were sipped into the microfluidic chip for separation and detection. The IC50 values of the test compound were determined by fitting the inhibition curves by 4 parameter sigmoidal dose-response model using the Xlfit5/GraphPad Prism 5 software.

T2 sequence (P11802 whole entry): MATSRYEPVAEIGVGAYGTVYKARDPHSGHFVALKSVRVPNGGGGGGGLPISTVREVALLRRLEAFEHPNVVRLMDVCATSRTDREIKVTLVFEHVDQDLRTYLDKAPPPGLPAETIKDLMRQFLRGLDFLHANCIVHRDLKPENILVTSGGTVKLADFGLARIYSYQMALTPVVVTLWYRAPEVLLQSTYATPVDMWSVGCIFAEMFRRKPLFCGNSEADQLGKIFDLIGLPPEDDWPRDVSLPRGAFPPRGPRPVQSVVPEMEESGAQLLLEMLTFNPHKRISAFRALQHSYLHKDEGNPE
T2 sequence (P24385 whole entry partner): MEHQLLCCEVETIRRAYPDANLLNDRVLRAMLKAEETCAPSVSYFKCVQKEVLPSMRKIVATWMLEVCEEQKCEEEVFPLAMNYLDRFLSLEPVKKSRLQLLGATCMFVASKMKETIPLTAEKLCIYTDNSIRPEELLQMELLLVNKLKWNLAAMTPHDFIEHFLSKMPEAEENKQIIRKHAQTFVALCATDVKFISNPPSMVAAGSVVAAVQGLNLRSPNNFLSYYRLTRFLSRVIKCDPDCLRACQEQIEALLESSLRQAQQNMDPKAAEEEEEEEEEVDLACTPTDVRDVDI

IC50 (T47D breast cancer cells; Homo sapiens, T47D) [nM] | IC50 (CDK2/CyclinE1; CDK2/CyclinE1, 100 μM ATP) [nM] | IC50 (CDK4/CyclinD1; CDK4/CyclinD1, 200 μM ATP) [nM] | IC50 (CDK2/CyclinE1; CDK2/CyclinE1) [nM] | IC50 (CDK4/CyclinD1; CDK4/CyclinD1) [nM] | Compound | IC50 (T47D breast cancer cells) [nM]
< 100 | < 10 | < 10 | – | – | CC(C)n1cnc2c1CN(c1nc(Nc3ccc(N4CCCC(N(C)C)C4)cc3)ncc1F)CC2 (stereo not drawn) [compound 252] | –
< 100 | < 10 | < 10 | – | – | CC1(N)CCN(c2ccc(Nc3nccc(-c4ccn5ncc(C(C)(C)C)c5c4)n3)nc2)C(=O)C1 (stereo not drawn) [compound 219] | –
< 100 | 100 to 1000 | < 10 | – | – | Cc1nn2ccc(-c3ccnc(Nc4ccc(N5CCCC(N(C)C)C5=O)cc4)n3)cc2c1C(C)C (stereo not drawn) [compound 178] | –
< 100 | 10 to 100 | 10 to 100 | – | – | CCN1CC(=O)N(c2ccc(Nc3ncc(F)c(-c4ccn5ncc(C(C)C)c5c4)n3)nc2)CC1=O [compound 14] | –
500 to 1000 | 100 to 1000 | 10 to 100 | – | – | O=C1COCCN1c1ccc(Nc2ncc(F)c(-c3ccn4ncc(C5CCCC5)c4c3)n2)nc1 [compound 12] | –
< 100 | < 10 | < 10 | – | – | CC(C)n1cnc2c1CN(c1nc(Nc3ccc(N4CCNCC4=O)cc3)ncc1F)CC2 [compound 257] | –
< 100 | 10 to 100 | < 10 | – | – | CC1(N)CCN(c2ccc(Nc3nccc(-c4cc(F)c5c(c4)C4(CCCC4)CO5)n3)nc2)C(=O)C1 (stereo not drawn) [compound 260] | –
< 100 | 100 to 1000 | < 10 | – | – | CC(C)n1cnc2c(F)nc(-c3ccnc(Nc4ccc(N5CCN(C6CC6)CC5)cn4)n3)cc21 [compound 267] | –
< 100 | – | – | 100 to 1000 | < 10 | COc1nc(-c2ccnc(Nc3ccc(N4CCCC(N(C)C)C4=O)cc3)n2)cc2c1ncn2C(C)C (stereo not drawn) [compound 311] | –
< 100 | 100 to 1000 | < 10 | – | – | CN(C)C1CCCN(c2ccc(Nc3nccc(-c4cc(F)c5c(c4)C(C)(C)CO5)n3)cc2)C1=O (stereo not drawn) [compound 266] | –
< 100 | 10 to 100 | < 10 | – | – | CNC1CCCN(c2ccc(Nc3nccc(-c4cc5c(ncn5C(C)C)c(F)n4)n3)cc2)C1=O (stereo not drawn) [compound 294] | –
< 100 | 100 to 1000 | < 10 | – | – | CC(C)n1cnc2c(F)nc(-c3ccnc(Nc4ccc(N5CCN(CCF)CC5)cn4)n3)cc21 [compound 309] | –
< 100 | 10 to 100 | < 10 | – | – | Cc1nn2ccc(-c3ccnc(Nc4ccc(N5CCCC(N)C5=O)cc4)n3)cc2c1C(C)C (stereo not drawn) [compound 216] | –
< 100 | 10 to 100 | < 10 | – | – | CC1(C)COc2c(F)cc(-c3ccnc(Nc4ccc(N5CCCC(N)C5=O)cc4)n3)cc21 (stereo not drawn) [compound 263] | –
< 100 | < 10 | < 10 | – | – | Cc1nc2c(F)nc(-c3ccnc(Nc4ccc(N5CCC(N(C)C)CC5=O)cc4)n3)cc2n1C(C)C (stereo not drawn) [compound 295] | –
500 to 1000 | 100 to 1000 | < 10 | – | – | CC(C)n1cnc2c1CN(c1ccnc(Nc3ccc(N4CCCC(N)C4=O)cc3)n1)CC2 (stereo not drawn) [compound 246] | –

IC50 (T47D breast cancer cells; Homo sapiens, T47D) [nM] | IC50 (CDK2/CyclinE1; CDK2/CyclinE1, 100 μM ATP) [nM] | IC50 (CDK4/CyclinD1; CDK4/CyclinD1, 200 μM ATP) [nM] | IC50 (CDK2/CyclinE1; CDK2/CyclinE1) [nM] | IC50 (CDK4/CyclinD1; CDK4/CyclinD1) [nM] | Compound | IC50 (T47D breast cancer cells) [nM]
< 100 | 100 to 1000 | < 10 | – | – | CNC1CCCN(c2ccc(Nc3nccc(-c4ccn5ncc(C(C)C)c5c4)n3)nc2)C1=O (stereo not drawn) [compound 208] | –
< 100 | 10 to 100 | < 10 | – | – | CC(C)c1cnn2ccc(-c3ccnc(Nc4ccc(N5CCC(N(C)CCF)CC5=O)cn4)n3)cc12 (stereo not drawn) [compound 170] | –
< 100 | > 1000 | < 10 | – | – | CNC1CCCN(c2ccc(Nc3nccc(-c4cc5c(ncn5C(C)C)c(F)n4)n3)nc2)C1=O (stereo not drawn) [compound 284] | –
100 to 500 | 10 to 100 | < 10 | – | – | CC(C)n1cnc2c1CN(c1nc(Nc3ccc(N4CCNCC4=O)cn3)ncc1F)CC2 [compound 238] | –
< 100 | 100 to 1000 | < 10 | – | – | CNC1CCCN(c2ccc(Nc3ncc(Cl)c(-c4cc5c(ncn5C(C)C)c(F)n4)n3)cc2)C1=O (stereo not drawn) [compound 299] | –
< 100 | 10 to 100 | < 10 | – | – | CNC1CCCN(c2ccc(Nc3nccc(-c4cc(F)c5c(c4)C(C)(C)CO5)n3)cc2)C1=O (stereo not drawn) [compound 265] | –
< 100 | < 10 | < 10 | – | – | CC(C)c1cnn2ccc(-c3ccnc(Nc4ccc(N5CCC(NCCF)CC5=O)cn4)n3)cc12 (stereo not drawn) [compound 201] | –
100 to 500 | 100 to 1000 | < 10 | – | – | CC(C)c1cnn2ccc(-c3nc(Nc4ccc(N5CCN(C6CC6)CCC5=O)cn4)ncc3F)cc12 [Synthetic Example 49] | –
< 100 | < 10 | < 10 | – | – | CC(C)c1cnn2ccc(-c3ccnc(Nc4ccc(N5CCC(N(C)C)C5=O)cc4)n3)cc12 (stereo not drawn) [compound 144] | –
< 100 | > 1000 | < 10 | – | – | Cc1nc2c(F)nc(-c3ccnc(Nc4ccc(N5CCN(C(C)C)CC5)cn4)n3)cc2n1C(C)C [compound 269] | –
500 to 1000 | < 10 | < 10 | – | – | CC(C)(C)c1cnn2ccc(-c3ccnc(Nc4ccc(N5C(=O)C6CC5CN6)cn4)n3)cc12 (stereo not drawn) [compound 211] | –
< 100 | 100 to 1000 | < 10 | – | – | CNC1CCCN(c2ccc(Nc3ncc(C)c(-c4cc5c(ncn5C(C)C)c(F)n4)n3)cc2)C1=O (stereo not drawn) [compound 298] | –
> 1000 | 10 to 100 | < 10 | – | – | CC(C)c1cnn2ccc(-c3ccnc(Nc4ccc(N5C(=O)C6CC5CN6)cn4)n3)cc12 (stereo not drawn) [compound 210] | –
100 to 500 | 100 to 1000 | < 10 | – | – | CC(C)c1cnn2ccc(-c3ccnc(Nc4ccc(N5CCCC(N(C)C)C5=O)cc4)n3)cc12 (stereo not drawn) [compound 174] | –
< 100 | 10 to 100 | < 10 | – | – | CC(C)n1cnc2c1CN(c1nc(Nc3ccc(N4CCCC(N(C)C)C4=O)cc3)ncc1F)CC2 (stereo not drawn) [compound 249] | –
< 100 | > 1000 | < 10 | – | – | CC(C)n1cnc2c(F)nc(-c3nc(Nc4ccc(N5CCCC(N(C)C)C5=O)cn4)ncc3F)cc21 (stereo not drawn) [compound 300] | –

Compound | IC50 (T47D breast cancer cells; Homo sapiens, T47D) [nM] | IC50 (CDK2/CyclinE1; CDK2/CyclinE1, 100 μM ATP) [nM] | IC50 (CDK4/CyclinD1; CDK4/CyclinD1, 200 μM ATP) [nM] | IC50 (CDK2/CyclinE1; CDK2/CyclinE1) [nM] | IC50 (CDK4/CyclinD1; CDK4/CyclinD1) [nM] | IC50 (T47D breast cancer cells) [nM]
Cc1nc2c(F)nc(-c3ccnc(Nc4ccc(N5CCCC(N(C)C)C5=O)cn4)n3)cc2n1C(C)C (single isomer, unassigned) [Synthetic Example 303, 3-(dimethylamino)-1-[6-[[4-(4-fluoro-1-isopropyl-2-methyl-imidazo[4,5-c]pyridin-6-yl)pyrimidin-2-yl]amino]-3-pyridyl]piperidin-2-one] | – | > 1000 | < 10 | – | – | < 100
CC(C)c1cnn2ccc(-c3ccnc(Nc4ccc(C(=O)N5CCC(NC6CC6)C5)cc4)n3)cc12 (stereo not drawn) [compound 21] | – | < 10 | < 10 | – | – | < 100
CNC1CCN(c2ccc(Nc3nccc(-c4ccn5ncc(C(C)C)c5c4)n3)nc2)C(=O)C1 (single isomer, unassigned) [Synthetic Example 206, 1-[6-[[4-(3-isopropylpyrazolo[1,5-a]pyridin-5-yl)pyrimidin-2-yl]amino]-3-pyridyl]-4-(methylamino)piperidin-2-one] | – | < 10 | < 10 | – | – | < 100
